This is an account of results in PubChem BioAssay (NCI).

Some test systems named below: SNB-19 CNS; UACC-257 melanoma; EKVX NSCLC; SF-268 CNS; HCT-15 colon; RXF 393 renal; HCT-116 colon; BT-549 breast; SF-295 CNS; T-47D breast.
Holding throughout (assay): NCI-60 cell line screen, 48 h

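How tested: cells in 96-well plates exposed to compound for 48 hours at five concentrations. GI50 marks 50% less growth. TGI marks complete inhibition of growth.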 Where only a bound is given, the exact number is not on record here.

Regarding `CCCCCCCCCCCCOC1C(C(COC2OC(C3COC(C)(C)O3)C3OC(C)(C)OC23)NC(=O)Nc2ccc(C(=O)O)cc2)OC2OC(C)(C)OC21` (stereo not given), the GI50 in the assay on SNB-19 CNS is 4.41 µM; with UACC-257 melanoma it was 2.38 µM; in the assay with EKVX NSCLC it was 2.69 µM; in the assay on SF-268 CNS, 3.37 µM; in the assay with HCT-15 colon, 2.63 µM; in the assay with RXF 393 renal, 2.26 µM. The GI50 in the assay on HCT-116 colon was 2.87 µM; in the assay with BT-549 breast, 1.79 µM; in the assay with SF-295 CNS it was 2.15 µM; in the assay with T-47D breast it was 3.39 µM. Besides, the TGI worked out at 14.6 µM with SNB-19 CNS; 5.79 µM with UACC-257 melanoma; 10.8 µM with EKVX NSCLC; 13.7 µM with SF-268 CNS; 6.7 µM with HCT-15 colon; 4.05 µM with RXF 393 renal. In addition, the TGI with HCT-116 colon came to 10.8 µM; in the assay on BT-549 breast, 4.59 µM; in the assay on SF-295 CNS, 5.69 µM; with T-47D breast, 13.5 µM.

As for `O=C(Cc1ccc(/C=C/C(=O)c2ncc[nH]2)cc1)Nc1cc(F)c(F)c(F)c1`, the GI50 in the assay on SNB-19 CNS is 4.07 µM; in the assay with UACC-257 melanoma, 4.49 µM; with EKVX NSCLC, 8.45 µM; with SF-268 CNS it was 5.26 µM; in the assay on HCT-15 colon, 2.39 µM; with RXF 393 renal, 3.06 µM. Moreover, the GI50 in the assay with HCT-116 colon is 2.04 µM; with BT-549 breast, 3.37 µM; in the assay with SF-295 CNS it was 6.82 µM; with T-47D breast, 2.91 µM. The TGI is 9.93 µM in the assay on SNB-19 CNS; 11.9 µM in the assay on UACC-257 melanoma; greater than 25 µM with EKVX NSCLC; 20.1 µM in the assay on SF-268 CNS; 8.25 µM in the assay on HCT-15 colon; 6.56 µM in the assay with RXF 393 renal. Moreover, the TGI in the assay with HCT-116 colon stood at 5.38 µM; in the assay with BT-549 breast it was 6.74 µM; in the assay on SF-295 CNS, 20.5 µM; in the assay on T-47D breast, 10.5 µM.

For `C=C1CC[C@@H]2[C@](C)(COC(C)=O)[C@H](OC(C)=O)CC[C@@]2(C)[C@@H]1CC(Sc1ccccc1)C1=CCOC1=O` (stereo not given in full), the GI50 was 1.78 µM in the assay on SNB-19 CNS; 1.91 µM in the assay with UACC-257 melanoma; 2.43 µM with EKVX NSCLC; 1.71 µM in the assay with SF-268 CNS; 0.877 µM in the assay on HCT-15 colon; 1.62 µM in the assay on RXF 393 renal. For the same molecule, the GI50 in the assay on HCT-116 colon was 0.854 µM; with BT-549 breast, 1.59 µM; in the assay on SF-295 CNS, 4.12 µM; with T-47D breast, 2.01 µM. Besides, the TGI in the assay with SNB-19 CNS was found to be 3.77 µM; in the assay with UACC-257 melanoma, 3.71 µM; in the assay with EKVX NSCLC, 10.4 µM; with SF-268 CNS, 3.55 µM; in the assay with HCT-15 colon it was 2.59 µM; with RXF 393 renal, 3.12 µM. In addition, the TGI in the assay on HCT-116 colon was determined as 2.18 µM; in the assay with BT-549 breast, 3.99 µM; in the assay on SF-295 CNS, 27.3 µM; in the assay with T-47D breast, 8.32 µM.

As to `CC(O)CCC(=O)c1ccoc1` (stereo not given), the TGI with SNB-19 CNS was greater than 10000 µM; with UACC-257 melanoma, greater than 10000 µM; with EKVX NSCLC it was greater than 9740 µM; in the assay with SF-268 CNS, greater than 10000 µM; with HCT-15 colon it was greater than 10000 µM; in the assay on RXF 393 renal it was greater than 8310 µM. In addition, the TGI is greater than 8750 µM with HCT-116 colon, greater than 10000 µM in the assay with BT-549 breast, greater than 10000 µM in the assay on SF-295 CNS and greater than 10000 µM in the assay with T-47D breast.

In the case of `COc1ccc(CN2C(=O)/C(=C\C(=O)c3ccc(OCCN4CCCCC4)cc3)c3ccccc32)cc1`, the GI50 was 4.63 µM with SNB-19 CNS; 16.8 µM in the assay with UACC-257 melanoma; 4.94 µM in the assay on EKVX NSCLC; 4.03 µM in the assay with SF-268 CNS; 1.67 µM in the assay on HCT-15 colon; 1.69 µM with RXF 393 renal. Besides, the GI50 with HCT-116 colon is 1.54 µM; in the assay with BT-549 breast, 5.25 µM; in the assay with SF-295 CNS, 13.8 µM; with T-47D breast, 1.64 µM. The TGI with SNB-19 CNS amounted to 17.1 µM; with UACC-257 melanoma, 30.8 µM; in the assay with EKVX NSCLC, 19.6 µM; in the assay on SF-268 CNS, 19.5 µM; with HCT-15 colon it was 3.37 µM; in the assay on RXF 393 renal it was 3.22 µM. Moreover, the TGI in the assay with HCT-116 colon is 2.88 µM; in the assay with BT-549 breast, 16.5 µM; with SF-295 CNS, 31.8 µM; in the assay on T-47D breast, 3.29 µM.

As for `CCCCCCCCCCCCCC1=NC(C)(C)CN1C(C)C`, the GI50 with SNB-19 CNS was 1.79 µM; with UACC-257 melanoma, 1.92 µM; with EKVX NSCLC, 1.49 µM; in the assay with SF-268 CNS it was 1.76 µM; in the assay on HCT-15 colon, 1.32 µM; in the assay on RXF 393 renal it was 1.62 µM. The GI50 was 1.38 µM in the assay with HCT-116 colon, 2.33 µM in the assay with BT-549 breast, 1.62 µM with SF-295 CNS and 1.84 µM in the assay with T-47D breast. The TGI in the assay with SNB-19 CNS was 3.18 µM; with UACC-257 melanoma, 3.39 µM; in the assay on EKVX NSCLC, 3.17 µM; in the assay with SF-268 CNS, 3.14 µM; with HCT-15 colon, 2.59 µM; with RXF 393 renal, 3.11 µM. The TGI with HCT-116 colon amounted to 2.68 µM; in the assay on BT-549 breast, 6 µM; in the assay on SF-295 CNS, 3.15 µM; with T-47D breast, 3.8 µM.

Regarding `C=C1C(=O)O[C@@H]2C[C@@H]1CC/C(C)=C/CC/C(C)=C/CC[C@@]2(C)O`, the GI50 in the assay with SNB-19 CNS is 28.4 µM; in the assay on UACC-257 melanoma, 17.5 µM; in the assay on EKVX NSCLC, 23.5 µM; in the assay with SF-268 CNS, 16.3 µM; in the assay on HCT-15 colon, 18.2 µM; with RXF 393 renal, 19.1 µM. The GI50 in the assay with HCT-116 colon was 3.06 µM; in the assay with BT-549 breast, 21.1 µM; with SF-295 CNS, 16.6 µM; with T-47D breast, 34.2 µM. For the same molecule, the TGI was determined as 76.2 µM in the assay with SNB-19 CNS; 41.9 µM in the assay with UACC-257 melanoma; 48.9 µM with EKVX NSCLC; 35.6 µM in the assay with SF-268 CNS; 51.4 µM in the assay on HCT-15 colon; 45.6 µM in the assay with RXF 393 renal. Further, the TGI in the assay with HCT-116 colon is 11.9 µM; in the assay on BT-549 breast it was 40.4 µM; in the assay with SF-295 CNS it was 32.2 µM; in the assay on T-47D breast, greater than 100 µM.

Turning to `Cc1cc(I)cc(CN(C)CCCN2CCCCCCC2)c1O`, the GI50 in the assay with SNB-19 CNS is 20.4 µM; in the assay on UACC-257 melanoma it was 16.2 µM; with EKVX NSCLC, 16 µM; in the assay on SF-268 CNS it was 14.9 µM; with HCT-15 colon, 10.9 µM; with RXF 393 renal, 14.3 µM. Further, the GI50 in the assay on HCT-116 colon is 11.8 µM; in the assay on BT-549 breast, 13.1 µM; with SF-295 CNS it was 7.38 µM; in the assay on T-47D breast it was 19.6 µM. The TGI in the assay with SNB-19 CNS was found to be 44.5 µM; in the assay on UACC-257 melanoma, 34.3 µM; in the assay on EKVX NSCLC, 37.6 µM; with SF-268 CNS, 31.3 µM; in the assay with HCT-15 colon, 23.3 µM; in the assay with RXF 393 renal, 35.1 µM. Moreover, the TGI in the assay on HCT-116 colon was determined as 28.3 µM; in the assay with BT-549 breast, 26.7 µM; in the assay on SF-295 CNS, 23 µM; in the assay on T-47D breast, 52.8 µM.

On to `O=C(CNc1ccc(Cl)cc1)Nc1ccc(-c2nc3ccccc3s2)cc1`, for which the GI50 with SNB-19 CNS is 6.03 µM; with UACC-257 melanoma, 7.7 µM; with EKVX NSCLC, 8.02 µM; in the assay on SF-268 CNS it was 3.38 µM; in the assay with HCT-15 colon, 1.84 µM; in the assay on RXF 393 renal, 4.95 µM. Also, the GI50 in the assay on HCT-116 colon is 1.74 µM; in the assay with BT-549 breast, 1.83 µM; in the assay with SF-295 CNS, 14.1 µM; in the assay on T-47D breast it was 5.2 µM. For the same molecule, the TGI in the assay on SNB-19 CNS amounted to 16.6 µM; in the assay with UACC-257 melanoma it was 21.6 µM; in the assay on EKVX NSCLC, 24.5 µM; with SF-268 CNS, 10.8 µM; in the assay with HCT-15 colon, 5.32 µM; with RXF 393 renal it was 10.3 µM. The TGI in the assay on HCT-116 colon turned out to be 3.76 µM; with BT-549 breast it was 4.7 µM; with SF-295 CNS, 28.8 µM; in the assay with T-47D breast, 16.6 µM.

Consider `CC(C)=CCNc1ncnc2c1ncn2C1OC(CO)C(O)C1O` (stereo not given), for which the GI50 with SNB-19 CNS was 3.81 µM; in the assay with UACC-257 melanoma, greater than 792 µM; in the assay on EKVX NSCLC it was 7.79 µM; in the assay on SF-268 CNS it was 2 µM; with HCT-15 colon, 1.05 µM; in the assay on RXF 393 renal, 0.488 µM. Also, the GI50 is 0.499 µM in the assay with HCT-116 colon, 0.57 µM in the assay with BT-549 breast, 0.671 µM in the assay with SF-295 CNS and 0.983 µM in the assay on T-47D breast. Also, the TGI in the assay with SNB-19 CNS is greater than 201 µM; with UACC-257 melanoma it was greater than 1000 µM; with EKVX NSCLC, greater than 1000 µM; with SF-268 CNS, greater than 432 µM; in the assay on HCT-15 colon, 36.8 µM; with RXF 393 renal, 2.6 µM. Further, the TGI in the assay with HCT-116 colon was determined as 5.77 µM; in the assay with BT-549 breast it was 2.8 µM; in the assay on SF-295 CNS, 2.6 µM; in the assay with T-47D breast, 3.92 µM.

Regarding `CCC(C)n1ncn(-c2ccc(N3CCN(c4ccc(OCC5COC(Cn6cncn6)(c6ccc(Cl)cc6Cl)O5)cc4)CC3)cc2)c1=O` (stereo not given), the GI50 with SNB-19 CNS is 38.9 µM; with UACC-257 melanoma it was 57.7 µM; with EKVX NSCLC, 1.24 µM; in the assay with SF-268 CNS, 33.6 µM; with HCT-15 colon, 15.3 µM; with RXF 393 renal, 0.267 µM. The GI50 was 21.6 µM with HCT-116 colon, 3.6 µM in the assay with BT-549 breast, 1.4 µM with SF-295 CNS and 1.27 µM in the assay on T-47D breast. Moreover, the TGI is greater than 100 µM with SNB-19 CNS; greater than 100 µM with UACC-257 melanoma; greater than 100 µM in the assay on EKVX NSCLC; greater than 100 µM with SF-268 CNS; greater than 100 µM in the assay with HCT-15 colon; 0.865 µM with RXF 393 renal. Further, the TGI was greater than 100 µM with HCT-116 colon, greater than 100 µM in the assay on BT-549 breast, greater than 100 µM with SF-295 CNS and 74.3 µM with T-47D breast.

As for `CC(CCC=O)CCOCc1ccccc1` (stereo not given), the TGI with SNB-19 CNS, with UACC-257 melanoma, in the assay with EKVX NSCLC, in the assay with SF-268 CNS, in the assay on HCT-15 colon and in the assay on RXF 393 renal was greater than 100 µM throughout. The TGI in the assay with HCT-116 colon, in the assay with BT-549 breast, in the assay on SF-295 CNS and in the assay on T-47D breast was greater than 100 µM throughout.
